Measurements published in US10463671B2, “Combination therapy for treating cancer” (Epizyme, Inc., priority 2013, dated 2019).

Tested on: glucocorticoid signaling genes in RL cells
Assay: RT2 Glucocorticoid Signaling PCR array
Type: cell-based
Conditions: 4 days, 1 μM Cpd44, Pred 10-fold below 4-day IC50
Method: Gene expression was normalized to array's B2M and fold change compared to DMSO was calculated using the ΔΔCt method.

## CCN(c1cc(-c2ccc(CN3CCOCC3)cc2)cc(C(=O)NCc2c(C)cc(C)[nH]c2=O)c1C)C1CCOCC1 [Compound 44]
  ACTB Ct value: 15.664
  ACTB ΔCT (B2M): −3.694
  ADARB1 Ct value: 26.650
  ADARB1 ΔCT (B2M): 7.292
  AFF1 Ct value: 26.820
  AFF1 ΔCT (B2M): 7.462
  AK2 Ct value: 20.270
  AK2 ΔCT (B2M): 0.912
  AMPD3 Ct value: 27.191
  AMPD3 ΔCT (B2M): 7.833
  ANGPTL4 Ct value: 29.820
  ANGPTL4 ΔCT (B2M): 10.462
  ANXA4 Ct value: 24.395
  ANXA4 ΔCT (B2M): 5.037
  ARID5B Ct value: 27.333
  ARID5B ΔCT (B2M): 7.975
  ASPH Ct value: 23.466
  ASPH ΔCT (B2M): 4.108
  ATF4 Ct value: 18.269
  ATF4 ΔCT (B2M): −1.089
  B2M Ct value: 19.358
  B2M ΔCT (B2M): 0.000
  BCL6 Ct value: 20.289
  BCL6 ΔCT (B2M): 0.931
  CEBPA Ct value: 36.511
  CEBPA ΔCT (B2M): 17.153
  CEBPB Ct value: 23.765
  CEBPB ΔCT (B2M): 4.407
  COL4A2 Ct value: 31.782
  COL4A2 ΔCT (B2M): 12.424
  CREB1 Ct value: 23.217
  CREB1 ΔCT (B2M): 3.859
  CREB3 Ct value: 24.178
  CREB3L4 Ct value: 23.500
  CREB3L4 ΔCT (B2M): 4.142
  CREB3 ΔCT (B2M): 4.820
  CYB561 Ct value: 38.452
  CYB561 ΔCT (B2M): 19.094
  DDIT4 Ct value: 22.679
  DDIT4 ΔCT (B2M): 3.321
  DUSP1 Ct value: 25.422
  DUSP1 ΔCT (B2M): 6.064
  EDN1 Ct value: 31.815
  EDN1 ΔCT (B2M): 12.457
  EHD3 Ct value: 24.572
  EHD3 ΔCT (B2M): 5.214
  ERRFI1 Ct value: 31.705
  ERRFI1 ΔCT (B2M): 12.347
  FKBP5 Ct value: 21.757
  FKBP5 ΔCT (B2M): 2.399
  FOSL2 Ct value: 30.761
  FOSL2 ΔCT (B2M): 11.403
  GAPDH Ct value: 15.720
  GAPDH ΔCT (B2M): −3.638
  GDPD1 Ct value: 27.394
  GDPD1 ΔCT (B2M): 8.036
  GHRHR Ct value: 37.546
  GHRHR ΔCT (B2M): 18.188
  GLUL Ct value: 28.738
  GLUL ΔCT (B2M): 9.380
  GOT1 Ct value: 22.584
  GOT1 ΔCT (B2M): 3.226
  H6PD Ct value: 25.012
  H6PD ΔCT (B2M): 5.654
  HNRPLL Ct value: 22.844
  HNRPLL ΔCT (B2M): 3.486
  HPRT1 Ct value: 22.013
  HPRT1 ΔCT (B2M): 2.655
  IL1RN Ct value: 28.405
  IL1RN ΔCT (B2M): 9.047
  IL6R Ct value: 29.246
  IL6R ΔCT (B2M): 9.888
  IL10 Ct value: 31.498
  IL10 ΔCT (B2M): 12.140
  KLF13 Ct value: 22.854
  KLF13 ΔCT (B2M): 3.496
  MERTK Ct value: 30.691
  MERTK ΔCT (B2M): 11.333
  MT1E Ct value: 34.215
  MT1E ΔCT (B2M): 14.857
  MT2A Ct value: 24.279
  MT2A ΔCT (B2M): 4.921
  NFKBIA Ct value: 23.710
  NFKBIA ΔCT (B2M): 4.352
  NR3C1 Ct value: 22.616
  NR3C1 ΔCT (B2M): 3.258
  PDCD7 Ct value: 24.406
  PDCD7 ΔCT (B2M): 5.048
  PDP1 Ct value: 25.387
  PDP1 ΔCT (B2M): 6.029
  PER1 Ct value: 25.492
  PER1 ΔCT (B2M): 6.134
  PER2 Ct value: 24.378
  PER2 ΔCT (B2M): 5.020
  PIK3R1 Ct value: 23.908
  PIK3R1 ΔCT (B2M): 4.550
  PLEKHF1 Ct value: 30.520
  PLEKHF1 ΔCT (B2M): 11.162
  POU2F1 Ct value: 24.243
  POU2F1 ΔCT (B2M): 4.885
  POU2F2 Ct value: 21.769
  POU2F2 ΔCT (B2M): 2.411
  RASA3 Ct value: 26.279
  RASA3 ΔCT (B2M): 6.921
  RGS2 Ct value: 25.721
  RGS2 ΔCT (B2M): 6.363
  RPLP0 Ct value: 14.837
  RPLP0 ΔCT (B2M): −4.521
  SESN1 Ct value: 24.425
  SESN1 ΔCT (B2M): 5.067
  SGK1 Ct value: 26.262
  SGK1 ΔCT (B2M): 6.904
  SLC19A2 Ct value: 25.536
  SLC19A2 ΔCT (B2M): 6.178
  SNTA1 Ct value: 25.554
  SNTA1 ΔCT (B2M): 6.196
  SPHK1 Ct value: 31.119
  SPHK1 ΔCT (B2M): 11.761
  SPSB1 Ct value: 26.285
  SPSB1 ΔCT (B2M): 6.927
  STAT5A Ct value: 22.769
  STAT5A ΔCT (B2M): 3.411
  STAT5B Ct value: 22.683
  STAT5B ΔCT (B2M): 3.325
  TBL1XR1 Ct value: 21.663
  TBL1XR1 ΔCT (B2M): 2.305
  TNF Ct value: 24.712
  TNF ΔCT (B2M): 5.354
  TNFAIP3 Ct value: 26.896
  TNFAIP3 ΔCT (B2M): 7.538
  TSC22D3 Ct value: 23.300
  TSC22D3 ΔCT (B2M): 3.942
  USP2 Ct value: 21.420
  USP2 ΔCT (B2M): 2.062
  USP54 Ct value: 26.364
  USP54 ΔCT (B2M): 7.006
  VDR Ct value: 27.736
  VDR ΔCT (B2M): 8.378
  ZFP36 Ct value: 24.374
  ZFP36 ΔCT (B2M): 5.016
  ZHX3 Ct value: 29.785
  ZHX3 ΔCT (B2M): 10.427
  ZNF281 Ct value: 23.667
  ZNF281 ΔCT (B2M): 4.309
Vs DMSO
  AFF1 ΔΔCT: −2.006
  ATF4 ΔΔCT: 0.003
  CEBPB ΔΔCT: −0.004
  CREB3L4 ΔΔCT: −0.760
  HNRPLL ΔΔCT: 0.309
  LOX ΔΔCT: −0.580
  NFKBIA ΔΔCT: 0.854
  NR3C1 ΔΔCT: 0.067
  PDCD7 ΔΔCT: 0.006
  PLEKHF1 ΔΔCT: 0.050
  POU2F1 ΔΔCT: −0.027
  POU2F2 ΔΔCT: −0.584
  RASA3 ΔΔCT: −0.009
  SNTA1 ΔΔCT: 0.040
  STAT5A ΔΔCT: 0.001
  STAT5B ΔΔCT: −0.094
  ZFP36 ΔΔCT: −0.036
  ZNF281 ΔΔCT: 0.046
